Patent publication US20040115742A1, “Method to identify specific interaction between ligand and receptor” (priority 2002, published 2004)

Assays:
[1] = molecular target: T1, erythropoietin receptor (EPOR, P19235) (Homo sapiens, UniProt P19235); experiment: cell-based ligand-lactamase fusion binding to cells expressing EPO receptor (CCF2 fluorescence); details: for fluorescence readout, multiplexed pool of 12 receptors: EPOR in pool of 12 receptors; for fluorescence readout, multiplexed pool of 96 receptors: EPOR in pool of 96 receptors; for fluorescence readout, one on one receptor-ligand binding / fluorescence readout, multiplexed pool of 12 ligands / fluorescence readout, multiplexed pool of 96 ligands: EPOR; for fluorescence readout, one on one receptor-ligand binding: one to one, beta-lactamase reporter, CCF2 substrate
T1 construct: V5-His (from vector pcDNA3.1D/V5-His-TOPO); expressed in transfected cells
T1 sequence (P19235 25-508): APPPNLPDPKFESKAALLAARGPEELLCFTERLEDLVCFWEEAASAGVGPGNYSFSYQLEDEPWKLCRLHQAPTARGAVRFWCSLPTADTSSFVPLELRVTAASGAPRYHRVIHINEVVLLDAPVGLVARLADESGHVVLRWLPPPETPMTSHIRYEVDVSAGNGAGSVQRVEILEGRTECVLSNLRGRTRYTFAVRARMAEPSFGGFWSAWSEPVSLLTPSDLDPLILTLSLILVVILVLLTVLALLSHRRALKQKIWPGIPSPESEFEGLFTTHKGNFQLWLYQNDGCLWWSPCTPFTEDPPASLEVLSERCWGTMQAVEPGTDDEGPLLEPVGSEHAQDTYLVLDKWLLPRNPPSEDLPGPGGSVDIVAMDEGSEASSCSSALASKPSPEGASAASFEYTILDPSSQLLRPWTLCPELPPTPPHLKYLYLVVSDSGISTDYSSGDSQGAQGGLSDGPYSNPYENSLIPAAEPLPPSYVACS
Protocol: (§1) Cells transfected with plasmids expressing a ligand lactamase fusion and cells transiently or stably expressing receptor were independently cultured in multiple well (e.g., 96-well, 384-well, or 1536-well) plates. After growth, the culture medium of the cells transiently or stably expressing receptor was removed, and the culture medium of the cells expressing ligand lactamase fusion was added to the wells of cells stably expressing receptor. After the mixture was incubated at 4° C. for 1 hour, the medium was removed. The cells stably expressing receptor were washed three times with PBS containing 1% FBS (Invitrogen), and a lactamase substrate, such as CCF2 in […], was added to the washed cells in each well, and incubated. The fluorescence emission at 447 nm with excitation at 409 nm was measured using the Spectra Max Gemim (Molecular Devices) at different time points. The increase of fluorescence emission at 447 nm represented the lactamase activity of ligand fusion bound on the cell surface.
The EPO receptor and EPO, IL-8, and TNF ligand lactamase fusion proteins were expressed as described above. The EPO, IL-8, and TNF ligand lactamase fusions were contacted with the EPO receptor in duplicate experiments.
EPO, IL-8, and TNF receptors and ligands were expressed as described above. Known ligands, including the EPO ligand, were grouped to form a multiplexed pool of 12 ligands and a multiplexed pool of 96 ligands. Compared to the fluorescence readout for one on one receptor-ligand binding for EPO/EPOR (26398 arbitrary units), the fluorescence readout (and thus, binding) was less for EPO/IL-8R (−503) and EPO/TNFR (−1027).
EPO, IL-8, and TNF receptors and ligands were expressed as described above. Known receptors, including the EPO receptor, were grouped to form a multiplexed pool of 12 receptors and a multiplexed pool of 96 receptors. Compared to the fluorescence readout for one on one receptor-ligand binding for EPOR/EPO (26398 arbitrary units), the fluorescence readout (and thus, binding) was less for EPOR/IL-8 (−902) and EPOR/TNF (−1113.5).

[2] = molecular target: T2, tumor necrosis factor receptor 2 (TNFR, P20333) (Homo sapiens, UniProt P20333); experiment: cell-based ligand-lactamase fusion binding to cells expressing TNF receptor (CCF2 fluorescence); details: for fluorescence readout, multiplexed pool of 12 receptors: TNFR in pool of 12 receptors; for fluorescence readout, multiplexed pool of 96 receptors: TNFR in pool of 96 receptors; for fluorescence readout, one on one receptor-ligand binding / fluorescence readout, multiplexed pool of 12 ligands / fluorescence readout, multiplexed pool of 96 ligands: TNFR; for fluorescence readout, one on one receptor-ligand binding: one to one, beta-lactamase reporter, CCF2 substrate
T2 construct: V5-His (from vector pcDNA3.1D/V5-His-TOPO); expressed in transfected cells
T2 sequence (P20333 23-461): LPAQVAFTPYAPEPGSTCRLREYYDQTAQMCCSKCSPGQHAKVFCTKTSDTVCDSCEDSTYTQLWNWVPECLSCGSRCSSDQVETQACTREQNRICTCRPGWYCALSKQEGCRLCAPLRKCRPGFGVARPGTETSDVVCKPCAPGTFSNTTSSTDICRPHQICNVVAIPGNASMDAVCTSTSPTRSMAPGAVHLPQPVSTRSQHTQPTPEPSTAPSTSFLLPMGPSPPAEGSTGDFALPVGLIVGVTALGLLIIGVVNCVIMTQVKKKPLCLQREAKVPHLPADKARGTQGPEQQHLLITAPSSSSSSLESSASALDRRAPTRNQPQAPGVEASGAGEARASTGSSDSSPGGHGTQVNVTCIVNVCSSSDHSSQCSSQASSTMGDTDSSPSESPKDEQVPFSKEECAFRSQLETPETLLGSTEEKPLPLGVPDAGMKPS
Protocol: as §1
The TNF receptor and TNF, EPO, and IL-8 ligand lactamase fusion proteins were expressed as described above. The TNF, EPO, and IL-8 ligand lactamase fusions were contacted with the TNF receptor in duplicate experiments.
EPO, IL-8, and TNF receptors and ligands were expressed as described above. Known ligands, including the TNF ligand, were grouped to form a multiplexed pool of 12 ligands and a multiplexed pool of 96 ligands. Compared to the fluorescence readout for one on one receptor-ligand binding for TNF/TNFR (32899 arbitrary units), the fluorescence readout (and thus, binding) was less for TNF/EPOR (−1113.5) and TNF/IL-8R (−814.5).
EPO, IL-8, and TNF receptors and ligands were expressed as described above. Known receptors, including the TNF receptor, were grouped to form a multiplexed pool of 12 receptors and a multiplexed pool of 96 receptors. Compared to the fluorescence readout for one on one receptor-ligand binding for TNFR/TNF (32899 arbitrary units), the fluorescence readout (and thus, binding) was less for TNFR/EPO (−1027) and TNFR/IL-8 (−1677).

[3] = molecular target: T3, interleukin-8 receptor A (IL8R, P25024) (Homo sapiens, UniProt P25024); experiment: cell-based ligand-lactamase fusion binding to cells expressing IL-8 receptor (CCF2 fluorescence); details: for fluorescence readout, multiplexed pool of 12 receptors: IL-8R in pool of 12 receptors; for fluorescence readout, multiplexed pool of 96 receptors: IL-8R in pool of 96 receptors; for fluorescence readout, one on one receptor-ligand binding / fluorescence readout, multiplexed pool of 12 ligands / fluorescence readout, multiplexed pool of 96 ligands: IL-8R; for fluorescence readout, one on one receptor-ligand binding: one to one, beta-lactamase reporter, CCF2 substrate
T3 construct: V5-His (from vector pcDNA3.1D/V5-His-TOPO); expressed in transfected cells
T3 sequence (P25024 1-350): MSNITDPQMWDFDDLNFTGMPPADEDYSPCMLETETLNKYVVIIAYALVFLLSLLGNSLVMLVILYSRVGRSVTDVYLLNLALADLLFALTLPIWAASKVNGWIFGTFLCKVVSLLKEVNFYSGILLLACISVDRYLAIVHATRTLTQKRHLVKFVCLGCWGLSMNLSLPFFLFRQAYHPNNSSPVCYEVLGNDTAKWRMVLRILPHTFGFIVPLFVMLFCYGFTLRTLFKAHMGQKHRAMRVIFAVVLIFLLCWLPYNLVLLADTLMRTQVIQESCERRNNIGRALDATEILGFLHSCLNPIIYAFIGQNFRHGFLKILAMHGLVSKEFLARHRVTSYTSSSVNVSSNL
Protocol: as §1
The IL-8 receptor and IL-8, EPO, and TNF ligand lactamase fusion proteins were expressed as described above. The IL-8, EPO, and TNF ligand lactamase fusions were contacted with the IL-8 receptor in duplicate experiments.
EPO, IL-8, and TNF receptors and ligands were expressed as described above. Known ligands, including the IL-8 ligand, were grouped to form a multiplexed pool of 12 ligands and a multiplexed pool of 96 ligands.
EPO, IL-8, and TNF receptors and ligands were expressed as described above. Known receptors, including the IL-8 receptor, were grouped to form a multiplexed pool of 12 receptors and a multiplexed pool of 96 receptors.

[4] = duplicate experiments, in words

interleukin-8 [IL-8]
fluorescence readout, multiplexed pool of 12 receptors [1]: −1059 arbitrary units | fluorescence readout, multiplexed pool of 96 receptors [1]: −1448 arbitrary units | fluorescence readout, one on one receptor-ligand binding [1]: −902 arbitrary units | fluorescence readout, multiplexed pool of 12 ligands [1]: −1059 arbitrary units | fluorescence readout, multiplexed pool of 96 ligands [1]: -1450 arbitrary units | fluorescence readout, multiplexed pool of 12 receptors [2]: −1847 arbitrary units | fluorescence readout, multiplexed pool of 96 receptors [2]: −718 arbitrary units | fluorescence readout, one on one receptor-ligand binding [2]: −1677 arbitrary units | fluorescence readout, multiplexed pool of 12 ligands [2]: −147 arbitrary units | fluorescence readout, multiplexed pool of 96 ligands [2]: −718 arbitrary units | fluorescence readout, multiplexed pool of 12 receptors [3]: 3785 arbitrary units | fluorescence readout, multiplexed pool of 96 receptors [3]: −476 arbitrary units | fluorescence readout, one on one receptor-ligand binding [3]: 16941 arbitrary units | fluorescence readout, multiplexed pool of 12 ligands [3]: 3785 arbitrary units | fluorescence readout, multiplexed pool of 96 ligands [3]: −476 arbitrary units | fluorescence readout of ligand binding with IL-8 receptor (FIG. 3) [3, 4]: high fluorescence readout

tumor necrosis factor alpha [TNF]
fluorescence readout, multiplexed pool of 12 receptors [1]: -1000 arbitrary units | fluorescence readout, multiplexed pool of 96 receptors [1]: −1634 arbitrary units | fluorescence readout, one on one receptor-ligand binding [1]: −1113.5 arbitrary units | fluorescence readout, multiplexed pool of 12 ligands [1]: −1005.5 arbitrary units | fluorescence readout, multiplexed pool of 96 ligands [1]: −1634 arbitrary units | fluorescence readout, multiplexed pool of 12 receptors [2]: 26974.5 arbitrary units | fluorescence readout, multiplexed pool of 96 receptors [2]: 6485.5 arbitrary units | fluorescence readout, one on one receptor-ligand binding [2]: 32899 arbitrary units | fluorescence readout, multiplexed pool of 12 ligands [2]: 26974.5 arbitrary units | fluorescence readout, multiplexed pool of 96 ligands [2]: 6485.5 arbitrary units | fluorescence readout of ligand binding with TNF receptor (FIG. 3) [2, 4]: high fluorescence readout | fluorescence readout, multiplexed pool of 12 receptors [3]: −1275.5 arbitrary units | fluorescence readout, multiplexed pool of 96 receptors [3]: −381 arbitrary units | fluorescence readout, multiplexed pool of 12 ligands [3]: −1275.5 arbitrary units | fluorescence readout, multiplexed pool of 96 ligands [3]: −381 arbitrary units

erythropoietin [EPO]
fluorescence readout of the positive well (FIG. 6) ([1]; 96-well plate, cDNA expression library, multiplexing factor of 12, one out of 96 wells): 13444 | fluorescence readout, multiplexed pool of 12 receptors [1]: 13570 arbitrary units | fluorescence readout, multiplexed pool of 96 receptors [1]: 1454 arbitrary units | fluorescence readout, one on one receptor-ligand binding [1]: 26398 arbitrary units | fluorescence readout, multiplexed pool of 12 ligands [1]: 13570 arbitrary units | fluorescence readout, multiplexed pool of 96 ligands [1]: 1454 arbitrary units | fluorescence readout of ligand binding with EPO receptor (FIG. 3) [1, 4]: high fluorescence readout | fluorescence readout, multiplexed pool of 12 receptors [2]: −1598 arbitrary units | fluorescence readout, multiplexed pool of 96 receptors [2]: −1177 arbitrary units | fluorescence readout, one on one receptor-ligand binding [2]: −1027 arbitrary units | fluorescence readout, multiplexed pool of 12 ligands [2]: −1598 arbitrary units | fluorescence readout, multiplexed pool of 96 ligands [2]: −1177 arbitrary units | fluorescence readout, multiplexed pool of 12 receptors [3]: −785 arbitrary units | fluorescence readout, multiplexed pool of 96 receptors [3]: −1334 arbitrary units | fluorescence readout, one on one receptor-ligand binding [3]: −503 arbitrary units | fluorescence readout, multiplexed pool of 12 ligands [3]: −785 arbitrary units | fluorescence readout, multiplexed pool of 96 ligands [3]: −1334 arbitrary units
